# Experimental data from US11478482B2 (NATIONAL UNIVERSITY CORPORATION TOKAI NATIONAL HIGHER …, priority 2018, dated 2022).
# Structures can show the parent of a compound that is named as a salt.
# Experiments:
# [1] = system: Meth-treated mice (C57BL/6); experiment: Meth-induced visual discrimination learning impairment in C57BL/6 mice (wild type); assay type: in vivo; conditions: for Meth-induced (1.0 mg/kg) visual discrimination impairment: meth-treated C57BL/6 mice
# MK-801-treated mice [2] = experiment: Social behavior test in MK-801-treated mice; assay type: in vivo
# Description: Before conducting the experiment, test mice were kept in breeding cages one by one for 2 days. On the third day, mice that had been normally group-reared in another breeding cage were placed as invading mice into the cages of the test mice, and social behaviors of the test mice, such as tracking and sniffing, were measured for 5 minutes (Ibi et al., 2010).
# ARHGAP10 mutant mice = experiment: Meth-induced visual discrimination learning impairment in ARHGAP10 mutant mice; assay type: in vivo; conditions: patient-type ARHGAP10 mutant mice
# C57BL/6 mice = experiment: Spontaneous locomotor activity; assay type: in vivo
# Description: (§1) Mice were placed one by one in measurement cages (25 cm×30 cm×18 cm). Immediately after the placement, spontaneous locomotor activity of mice was measured using a measurement device equipped with infrared light (Brain Science Idea, Osaka, Japan) (Ibi et al., 2010).
# MK-801-treated mice [3] = experiment: Visual discrimination test in MK-801-treated mice
# MK-801-treated mice [4] = experiment: MK-801-induced hyperactivity (hypermobility); assay type: in vivo; conditions: MK-801 0.3 mg/kg
# Description: as §1
# After 5 minutes, MK-801 (0.3 mg/kg) was intraperitoneally administered. The amount of locomotor activity started to be measured immediately after the administration (FIG. 6, panel A).
# [5] = system: dopaminergic neurons induced from iPS cells of patients with ARHGAP10 mutation; experiment: Neurite length of iPS cell-derived dopaminergic neurons (IncuCyte NeuroTrack); assay type: cell-based, human; conditions: 72 hours after addition of inhibitor
# Description: Dopaminergic neurons were induced from iPS cells of healthy subjects and patients with ARGHAP10 mutation. The induction method was performed according to a method already published (Transl Psychiatry. 2018 Jul. 19; 8(1): 129; and patent application PCT/JP2018/015304). To give an overview, iPS cells were cultured in an iPS cell medium supplemented with SB431542 (3 μM), CHIR99021 (3 μM), and dorsomorphin (3 μM) for 7 days (day 0 to day 7). The cultured cells were then dispersed with TrypLE™ select (Thermo Fisher Scientific Inc.) and passed through a cell strainer. […]
# Dopaminergic progenitor cells were seeded onto a culture dish coated with poly-L-ornithine/laminin/fibronectin (poly-L-ornithine, laminin, and fibronectin), and an Rho kinase inhibitor was added simultaneously. […] The length of neurites after 72 hours was automatically measured with IncuCyte NeuroTrack (registered trademark).
# Dopaminergic neurons were induced from iPS cells derived from healthy subjects and patients with ARHGAP10 mutation. […] The length of neurites was automatically detected and measured with IncuCyte (registered trademark) NeuroTrack (produced by Essen Bioscience).
# The length of neurites (mm) per mm^2 was calculated for each field of view, and analysis was performed for 18 fields of view in each group. […]
# [6] = fasudil 20 mg/kg i.p., listed as Fasudil, monohydrochloride hemihydrate
# [7] = fasudil 20 mg/kg i.p., monohydrochloride hemihydrate
compound,measurement,setting,value
"O=S(=O)(c1cccc2cnccc12)N1CCCNCC1 [fasudil, hexahydro-1-(5-isoquinolinesulfonyl)-1H-1,4-diazepine monohydrochloride hemihydrate]",Meth-induced (1.0 mg/kg) visual discrimination impairment,[1]; fasudil 3 mg/kg i.p.,Improvement
same,Meth-induced (1.0 mg/kg) visual discrimination impairment,"[1]; fasudil 10 mg/kg i.p., listed as Fasudil, monohydrochloride hemihydrate",Improved
same,Meth-induced (1.0 mg/kg) visual discrimination impairment,"[1]; fasudil 10 mg/kg i.p., monohydrochloride hemihydrate",improved
same,Meth-induced (1.0 mg/kg) visual discrimination impairment,[1]; [6],Improved
same,Meth-induced (1.0 mg/kg) visual discrimination impairment,[1]; [7],improved
same,MK-801-induced social behavior disorder,"MK-801-treated mice [2]; fasudil 5 mg/kg i.p., MK-801 0.1 mg/kg",±
same,MK-801-induced social behavior disorder,"MK-801-treated mice [2]; fasudil 10 mg/kg i.p., MK-801 0.1 mg/kg, listed as Fasudil, monohydrochloride hemihydrate",Improved
same,MK-801-induced social behavior disorder,"MK-801-treated mice [2]; fasudil 10 mg/kg i.p., MK-801 0.1 mg/kg, monohydrochloride hemihydrate",returned to the same level as the social behavior in control mice
same,MK-801-induced social behavior disorder,MK-801-treated mice [2]; fasudil 20 mg/kg i.p.,±
same,Meth-induced (0.3 mg/kg) visual discrimination impairment,ARHGAP10 mutant mice; fasudil 3 mg/kg i.p.,Improved
same,Meth-induced (0.3 mg/kg) visual discrimination impairment,ARHGAP10 mutant mice; fasudil 10 mg/kg i.p.,Improved
same,Meth-induced (0.3 mg/kg) visual discrimination impairment,ARHGAP10 mutant mice; [7],significantly improved
same,Spontaneous locomotor activity,"C57BL/6 mice; fasudil 20 mg/kg i.p., Table 1",±
same,Spontaneous locomotor activity,"C57BL/6 mice; fasudil 20 mg/kg i.p., versus saline-treated mice",same level of spontaneous locomotor activity as the saline-treated mice
same,Spontaneous locomotor activity,"C57BL/6 mice; fasudil 30 mg/kg i.p., versus saline-treated mice, listed as Fasudil, monohydrochloride hemihydrate",Decreased
same,Spontaneous locomotor activity,"C57BL/6 mice; fasudil 30 mg/kg i.p., versus saline-treated mice, monohydrochloride hemihydrate",significant decrease
same,MK-801-induced (1.0 mg/kg) visual discrimination disorder,MK-801-treated mice [3]; fasudil 3 mg/kg i.p.,±
same,MK-801-induced (1.0 mg/kg) visual discrimination disorder,MK-801-treated mice [3]; [6],Improved
same,MK-801-induced (1.0 mg/kg) visual discrimination disorder,MK-801-treated mice [3]; [7],returned to the control level
same,"test completion rate, latency to correct response, latency to obtain the reward","MK-801-treated mice [3]; fasudil 3, 10 or 20 mg/kg i.p., MK-801-treated mice",none of the groups showed significant changes
same,MK-801-induced hypermobility,MK-801-treated mice [4]; fasudil 10 mg/kg i.p.,±
same,MK-801-induced hypermobility,MK-801-treated mice [4]; [6],Improved
same,MK-801-induced hypermobility,MK-801-treated mice [4]; [7],significantly inhibited
same,length of neurites,[5],improving effects
Methamphetamine hydrochloride,correct response rate in the visual discrimination learning test,"[1]; meth 1.0 mg/kg, C57BL/6 mice, saline-treated about 90%",about 70%
"C[C@]12N[C@H](Cc3ccccc31)c1ccccc12 [MK-801, (+)-MK-801 maleate]",time of social behavior,"MK-801-treated mice [2]; MK-801 0.1 mg/kg i.p., compared with control mice",significantly reduced
same,correct response rate in the visual discrimination learning test,"MK-801-treated mice [3]; MK-801 0.1 mg/kg i.p., C57BL/6 mice, saline-treated 90%",about 70%
